Measurements as given in patent US7521569B2, “Process to obtain dibenzylbutyrolactonic lignans, process to obtain synthetic derivatives from lignans bearing anti-Chagas chemoprophylactic and therapeutical activities” (Fundação De Amparo À Pesquisa Do Estado de São Paulo, priority 2002, dated 2009).
Values after ≈ are worked out from the molar mass of the structure shown. Where two headings read alike, the source gives them in different places.

Tested on: blood tripomastigote forms of different lines of Trypanosoma cruzi
Assay: Tripanocidal activity: percentual of lysis of blood tripomastigote forms in infected mouse blood
Format: cell-based
Details: for killing at 25 µg/mL / IC50 / killing at 50 µg/mL: Trypanosoma cruzi; for killing at 25 µg/mL: read-out: % lysis; for anti-Chagas activity: statement in words
Experimental: Evaluation of the tripanocidal activity was made by checking percentual of lysis from blood tripomastigote forms of different lines of Trypanosoma cruzi, isolated from […] of mice on the parasitemic peak. Biological essays have been made on 200 μl titration microplaques containing about […] forms of the parasite in each milliliter of used blood. Substance concentrations as used for evaluation were of 10, 25 and 50 μg/ml, which were solubilized under PBS buffer containing 5% dimethyl sulfoxide. After adding substances, infected blood has been incubated at 4° C. under constant shaking for a 24-hour period. After that period, the quantity of parasites surviving to the action of substances was counted in an optical microscope and in comparison to the negative control group (infected blood, adding the solution used to solubilized substances), calculations concerning the determination of lysis percentual have been made. As a positive control, gentian violet has been used under concentration of 250 μg/ml, as indicated for chemoprophylaxis. All essays have been made in triplicate.
The biological activity protocol as described above is already fully published and used in the scientific field, being therefore standardized regarding tripanocidal activity (chemoprophylaxis and susceptibility evaluation for the parasite).
Various scientific works using this method, which is even presented in the original evaluation work for the biological activity of cubebin, as published by Bastos and contributors in 1999.

[1] = 50 μg/ml, infected blood, 4° C., 24 h
[2] = 25 μg/ml, infected blood, 4° C., 24 h
[3] = lysis of blood tripomastigotes, 24 h at 4° C., read-out: IC50

Structure (SMILES)	% lysis [1]	killing at 25 µg/mL [2] [%]	IC50 [3] [µg/mL]	anti-Chagas activity	% lysis (250 μg/ml (positive control), infected blood, 4° C., 24 h)	killing at 50 µg/mL [1] [%]	killing at 25 µg/mL (24 h) [%]	IC50 (24 h) [µg/mL]
CN(C)CCOC1OC[C@H](Cc2ccc3c(c2)OCO3)[C@H]1Cc1ccc2c(c1)OCO2 (single isomer, unassigned; (-)) [O-dimethylethylamine cubebin, (−)-O-dimethylethylamine-cubebin]	50/100%	90.1	3 (≈ 7.02 µM)	bear anti-Chagas activity	–	–	–	–
CN(C)c1ccc(C(=C2C=CC(=[N+](C)C)C=C2)c2ccc(N(C)C)cc2)cc1 [Gentian violet, gentian violet, reference compound]	–	–	76	–	250/100%	–	–	–
COC1OC[C@H](Cc2ccc3c(c2)OCO3)[C@H]1Cc1ccc2c(c1)OCO2 (stereo partly drawn) [O-methyl cubebin, O-methyl Cubebin]	–	13.9	86.3 (≈ 233 µM)	bear anti-Chagas activity	–	62	–	–
OC1OC[C@H](Cc2ccc3c(c2)OCO3)[C@H]1Cc1ccc2c(c1)OCO2 (stereo partly drawn) [Cubebin, cubebin]	–	7.3	97.6 (≈ 274 µM)	bear anti-Chagas activity	–	52.3	–	–
O=C1OC[C@H](Cc2ccc3c(c2)OCO3)[C@H]1Cc1ccc2c(c1)OCO2 [Hinokinin]	–	80.1	0.9 (≈ 2.54 µM)	bear anti-Chagas activity	–	95.4	–	–
O=C1OC[C@H](Cc2cc3c(cc2[N+](=O)[O-])OCO3)[C@H]1Cc1cc2c(cc1[N+](=O)[O-])OCO2 [6,6′-Dinitrohinokinin, 6, 6′-Dinitrohinokinin]	–	–	37.1 (≈ 83.5 µM)	bear anti-Chagas activity	–	82.8	57.6	–
COc1ccc(C[C@H]2C(=O)OC[C@@H]2Cc2ccc3c(c2)OCO3)cc1OC [Metilpluviatolide, methylpluviatolide]	50/100%	–	–	bear anti-Chagas activity	–	–	99	1.3 (≈ 3.51 µM)
CC(=O)OC1OC[C@H](Cc2ccc3c(c2)OCO3)[C@H]1Cc1ccc2c(c1)OCO2 (stereo partly drawn) [O-acetyl cubebin, O-acetyl Cubebin]	50/100%	76.2	16.9 (≈ 42.4 µM)	bear anti-Chagas activity	–	–	–	–
